Test results reported in ChEMBL document CHEMBL3046310, “Synthesis and antimicrobial screening of novel series of imidazo-[1,2-a]pyridine derivatives” (2012).
Converted amounts (≈) assume the structure as drawn.

What was measured:
Type in all cases: functional
Aspergillus clavatus = assay: Antimicrobial activity against Aspergillus clavatus MTCC 1323 after 72 hr by serial broth dilution method; conditions: MTCC 1323, 72 h
Aspergillus niger = assay: Antimicrobial activity against Aspergillus niger MTCC 282 after 72 hr by serial broth dilution method; conditions: MTCC 282, 72 h
Candida albicans = assay: Antimicrobial activity against Candida albicans MTCC 227 after 72 hr by serial broth dilution method; conditions: MTCC 227, 72 h
Streptococcus pyogenes = assay: Antimicrobial activity against Streptococcus pyogenes MTCC 442 after 24 hr by serial broth dilution method; conditions: MTCC 442, 24 h
Staphylococcus aureus = assay: Antimicrobial activity against Staphylococcus aureus MTCC 96 after 24 hr by serial broth dilution method; conditions: MTCC 96, 24 h
Pseudomonas aeruginosa = assay: Antimicrobial activity against Pseudomonas aeruginosa MTCC 1688 after 24 hr by serial broth dilution method; conditions: MTCC 1688, 24 h
Escherichia coli = assay: Antimicrobial activity against Escherichia coli MTCC 443 after 24 hr by serial broth dilution method; conditions: MTCC 443, 24 h

MIC (Aspergillus clavatus) | MIC (Aspergillus niger) | MIC (Candida albicans) | MIC (Streptococcus pyogenes) | MIC (Staphylococcus aureus) | MIC (Pseudomonas aeruginosa) | MIC (Escherichia coli) | Compound
1000 µg/mL (≈ 3550 µM) | 1000 µg/mL (≈ 3550 µM) | 1000 µg/mL (≈ 3550 µM) | 500 µg/mL (≈ 1780 µM) | 500 µg/mL (≈ 1780 µM) | 500 µg/mL (≈ 1780 µM) | 500 µg/mL (≈ 1780 µM) | Cc1ccn2c(CN(C)C)c(-c3ccccc3O)nc2c1
1000 µg/mL (≈ 3360 µM) | 1000 µg/mL (≈ 3360 µM) | 1000 µg/mL (≈ 3360 µM) | 250 µg/mL (≈ 841 µM) | 500 µg/mL (≈ 1680 µM) | 500 µg/mL (≈ 1680 µM) | 500 µg/mL (≈ 1680 µM) | Cc1ccn2c(CN(C)C)c(-c3ccc(O)cc3O)nc2c1
1000 µg/mL (≈ 3150 µM) | 1000 µg/mL (≈ 3150 µM) | 250 µg/mL (≈ 787 µM) | 50 µg/mL (≈ 157 µM) | 50 µg/mL (≈ 157 µM) | 100 µg/mL (≈ 315 µM) | 50 µg/mL (≈ 157 µM) | Cc1ccn2c(CN(C)C)c(-c3ccc(F)c(Cl)c3)nc2c1
500 µg/mL (≈ 1460 µM) | 500 µg/mL (≈ 1460 µM) | 500 µg/mL (≈ 1460 µM) | 250 µg/mL (≈ 730 µM) | 500 µg/mL (≈ 1460 µM) | 250 µg/mL (≈ 730 µM) | 500 µg/mL (≈ 1460 µM) | Cc1ccn2c(CN(C)C)c(-c3cc([N+](=O)[O-])c(O)cc3O)nc2c1
500 µg/mL (≈ 1280 µM) | 500 µg/mL (≈ 1280 µM) | 1000 µg/mL (≈ 2570 µM) | 100 µg/mL (≈ 257 µM) | 500 µg/mL (≈ 1280 µM) | 100 µg/mL (≈ 257 µM) | 100 µg/mL (≈ 257 µM) | Cc1ccn2c(CN(C)C)c(-c3ccc([N+](=O)[O-])cc3Br)nc2c1
1000 µg/mL (≈ 3060 µM) | 1000 µg/mL (≈ 3060 µM) | 1000 µg/mL (≈ 3060 µM) | 1000 µg/mL (≈ 3060 µM) | 500 µg/mL (≈ 1530 µM) | 250 µg/mL (≈ 766 µM) | 500 µg/mL (≈ 1530 µM) | Cc1ccn2c(CN(C)C)c(-c3ccc(O)c([N+](=O)[O-])c3)nc2c1
100 µg/mL (≈ 334 µM) | 100 µg/mL (≈ 334 µM) | 250 µg/mL (≈ 834 µM) | 500 µg/mL (≈ 1670 µM) | 100 µg/mL (≈ 334 µM) | 50 µg/mL (≈ 167 µM) | 100 µg/mL (≈ 334 µM) | Cc1ccn2c(CN(C)C)c(-c3cccc(Cl)c3)nc2c1

Continued, molecule first:

Compound | MIC (Aspergillus clavatus) | MIC (Aspergillus niger) | MIC (Candida albicans) | MIC (Streptococcus pyogenes) | MIC (Staphylococcus aureus) | MIC (Pseudomonas aeruginosa) | MIC (Escherichia coli)
Cc1ccn2c(CN(C)C)c(-c3ccccc3Br)nc2c1 | 100 µg/mL (≈ 290 µM) | 50 µg/mL (≈ 145 µM) | 500 µg/mL (≈ 1450 µM) | 250 µg/mL (≈ 726 µM) | 500 µg/mL (≈ 1450 µM) | 100 µg/mL (≈ 290 µM) | 100 µg/mL (≈ 290 µM)
CC1(C)S[C@@H]2[C@H](NC(=O)[C@H](N)c3ccccc3)C(=O)N2[C@H]1C(=O)O [AMPICILLIN] |  |  |  | 100 µg/mL (≈ 286 µM) | 250 µg/mL (≈ 715 µM) | 100 µg/mL (≈ 286 µM) | 100 µg/mL (≈ 286 µM)
Cc1ccn2c(CN(C)C)c(-c3ccc(F)cc3F)nc2c1 | 100 µg/mL (≈ 332 µM) | 50 µg/mL (≈ 166 µM) | 500 µg/mL (≈ 1660 µM) | 250 µg/mL (≈ 830 µM) | 50 µg/mL (≈ 166 µM) | 50 µg/mL (≈ 166 µM) | 100 µg/mL (≈ 332 µM)
COC1=CC(=O)C[C@@H](C)[C@]12Oc1c(Cl)c(OC)cc(OC)c1C2=O [GRISEOFULVIN] | 100 µg/mL (≈ 283 µM) | 100 µg/mL (≈ 283 µM) | 500 µg/mL (≈ 1420 µM) |  |  |  | 
Cc1ccn2c(CN(C)C)c(-c3cccc(Br)c3F)nc2c1 | 25 µg/mL (≈ 69 µM) | 100 µg/mL (≈ 276 µM) | 1000 µg/mL (≈ 2760 µM) | 25 µg/mL (≈ 69 µM) | 250 µg/mL (≈ 690 µM) | 500 µg/mL (≈ 1380 µM) | 500 µg/mL (≈ 1380 µM)
Cc1ccn2c(CN(C)C)c(-c3c(F)cccc3F)nc2c1 | 500 µg/mL (≈ 1660 µM) | 100 µg/mL (≈ 332 µM) | 1000 µg/mL (≈ 3320 µM) | 100 µg/mL (≈ 332 µM) | 250 µg/mL (≈ 830 µM) | 25 µg/mL (≈ 83 µM) | 25 µg/mL (≈ 83 µM)
Cc1ccn2c(CN(C)C)c(-c3cccc(F)c3F)nc2c1 | 250 µg/mL (≈ 830 µM) | 250 µg/mL (≈ 830 µM) | 125 µg/mL (≈ 415 µM) | 500 µg/mL (≈ 1660 µM) | 500 µg/mL (≈ 1660 µM) | 250 µg/mL (≈ 830 µM) | 50 µg/mL (≈ 166 µM)
